# Earlier results as cited in patent US6670343B1, “Drugs for periodontal disease” (Toray Industries, Inc., priority 1999, dated 2003).
# Conditions: reported in J. Periodontology 63, 825-830 (1992)
smiles,measurement,value
"NCCCC(O)(P(=O)(O)O)P(=O)(O)O [4-amino-1-hydroxybutylidene-1,1-bisphosphonic acid]",effect on alveolar bone resorption,effectively suppresses alveolar bone resorption
same,effect on dental pocket formation and gingival inflammation,not effective
